Measured values as given in PubChem BioAssay AID192 (DTP/NCI, 2004).
Toxic doses and inconclusive results are not listed. The calls were made as follows: active = survival T/C of 150% or more; inactive = T/C below 125% in these data.

System: BDF1 mice, B16 melanoma ip, median survival T/C
Experiment: NCI In Vivo Anticancer Drug Screen. Data for tumor model B16 Melanoma (intraperitoneal) in B6D2F1 (BDF1) mice
Details: endpoint: median survival time, higher = longer survival
In short: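 Tumor-bearing mice received test compound or vehicle. Survival or tumor size was then measured in both groups. The treated-group figure was divided by the control-group figure.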

[1] = dose: 6.25 mg/kg/injection, schedule: Q01DX009 (ip), vehicle: saline
[2] = dose: 12.5 mg/kg/injection, schedule: Q01DX009 (ip), vehicle: saline
[3] = dose: 25.0 mg/kg/injection, schedule: Q01DX009 (ip), vehicle: saline
[4] = dose: 50.0 mg/kg/injection, schedule: Q01DX009 (ip), vehicle: saline
[5] = dose: 100.0 mg/kg/injection, schedule: Q01DX009 (ip), vehicle: saline
[6] = dose: 100.0 mg/kg/injection, schedule: Q01DX009 (ip), vehicle: Klucel (hydroxypropylcellulose) (HPC)
[7] = dose: 200.0 mg/kg/injection, schedule: Q01DX009 (ip), vehicle: Klucel (hydroxypropylcellulose) (HPC)
[8] = dose: 400.0 mg/kg/injection, schedule: Q01DX009 (ip), vehicle: Klucel (hydroxypropylcellulose) (HPC)
[9] = dose: 25.0 mg/kg/injection, schedule: Q01DX009 (ip), vehicle: Klucel (hydroxypropylcellulose) (HPC)
[10] = dose: 50.0 mg/kg/injection, schedule: Q01DX009 (ip), vehicle: Klucel (hydroxypropylcellulose) (HPC)
[11] = dose: 100.0 mg/kg/injection, schedule: Q01DX009 (ip), vehicle: saline with Tween-80
[12] = dose: 200.0 mg/kg/injection, schedule: Q01DX009 (ip), vehicle: saline with Tween-80
[13] = dose: 400.0 mg/kg/injection, schedule: Q01DX009 (ip), vehicle: saline with Tween-80
[14] = dose: 12.5 mg/kg/injection, schedule: Q01DX009 (ip), vehicle: Klucel (hydroxypropylcellulose) (HPC)

Measured: T/C

C/C=C/C=C/c1cc2cc3c(c(O)c2c(=O)[nH]1)C1(CC3)C(O)=c2c(=O)c3c(=O)cc(OC)c(=O)c=3c(=O)c2=C1O (stereo not given)
inactive: dose: 0.06 mg/kg/injection, schedule: Q01DX009 (ip), vehicle: DMSO 98 % of control | dose: 0.12 mg/kg/injection, schedule: Q01DX009 (ip), vehicle: DMSO 99 % of control | dose: 0.25 mg/kg/injection, schedule: Q01DX009 (ip), vehicle: DMSO 96 % of control | dose: 0.5 mg/kg/injection, schedule: Q01DX009 (ip), vehicle: DMSO 120 % of control

NC(=O)C1(N2CCCCC2)CCN(CCCC(=O)c2ccc(F)cc2)CC1
inactive: [1] 108 % of control | [2] 108 % of control | [3] 113 % of control | [4] 105 % of control | [5] 105 % of control

Cc1cc(Cl)ccc1NC(=O)c1ccccc1Cl
inactive: [6] 114 % of control | [7] 122 % of control | [8] 110 % of control

CCCSc1ccccc1N1CCN(CC(COC)OC)CC1 (stereo not given)
inactive: [2] 101 % of control | [3] 100 % of control | [4] 96 % of control

[Cl][Ge]([Cl])([c]1ccccc1)[c]1ccccc1
inactive: [9] 93 % of control | [10] 100 % of control

CCCCCCC1N(Cc2ccccc2N(C)C)CCCN1Cc1ccccc1N(C)C
inactive: dose: 75.0 mg/kg/injection, schedule: Q01DX009 (ip), vehicle: saline 97 % of control

COC(=O)CCNCc1ccccc1
inactive: [6] 100 % of control | [7] 96 % of control | [8] 93 % of control

O=C1C=C(N2CC2)c2ccccc2C1=O
inactive: dose: 5.0 mg/kg/injection, schedule: Q01DX009 (ip), vehicle: saline with Tween-80 105 % of control | dose: 10.0 mg/kg/injection, schedule: Q01DX009 (ip), vehicle: saline with Tween-80 100 % of control

OCCOCCN1CCN(C(c2ccccc2)c2ccc(Cl)cc2)CC1 (stereo not given)
inactive: dose: 3.12 mg/kg/injection, schedule: Q01DX009 (ip), vehicle: saline 97 % of control | [1] 102 % of control | [2] 105 % of control | [3] 97 % of control | [4] 100 % of control | [5] 102 % of control

NC(N)=NC(N)=Nc1ccc(S(=O)(=O)O)cc1
inactive: [11] 94 % of control | [12] 104 % of control | [13] 98 % of control

NC(=O)N1c2ccccc2C=Cc2ccccc21
inactive: [14] 112 % of control | [9] 100 % of control | [10] 106 % of control | [6] 91 % of control | [7] 90 % of control

CCCCN(C)/N=N/c1nc[nH]c1C(N)=O
inactive: dose: 10.0 mg/kg/injection, schedule: Q01DX009 (ip), vehicle: carboxymethylcellulose (CMC) 111 % of control | dose: 20.0 mg/kg/injection, schedule: Q01DX009 (ip), vehicle: carboxymethylcellulose (CMC) 120 % of control | dose: 25.0 mg/kg/injection, schedule: Q01DX009 (ip), vehicle: saline with Tween-80 109 % of control | dose: 50.0 mg/kg/injection, schedule: Q01DX009 (ip), vehicle: saline with Tween-80 112 % of control

Cc1ccc(S(=O)(=O)N/N=C/C(Br)=C(/Br)C(=O)O)cc1
inactive: [14] 111 % of control | [9] 113 % of control | [10] 122 % of control

COC(=O)CCC(=O)N1CCOCC1
inactive: [11] 95 % of control | dose: 100.0 mg/kg/injection, schedule: Q04DX003 (ip), vehicle: saline with Tween-80 100 % of control | [12] 93 % of control | dose: 200.0 mg/kg/injection, schedule: Q04DX003 (ip), vehicle: saline with Tween-80 102 % of control | [13] 97 % of control | dose: 400.0 mg/kg/injection, schedule: Q04DX003 (ip), vehicle: saline with Tween-80 102 % of control
